Results from patent publication US20130072517A1 (Avanir Pharmaceuticals, Inc., priority 2002, published 2013).

Tests used:
[1] = Clinical Study #5: concentrations in plasma of DM, DX and Q and correlation with pain intensity; type: in vivo, human; conditions: final visit; for Concentration in plasma, Mean / Concentration in plasma, Median: extensive metabolizers
Method: Subjects visited the clinic every two weeks during the four-week duration of the study and were contacted by telephone during weeks without clinic visits. At each subsequent study visit or weekly phone call, the subjects were given the Pain Intensity Rating Scale and the Pain Relief Rating Scale and were queried regarding any adverse events that might have occurred since their previous visit. Subjects were administered the Peripheral Neuropathy Quality of Life (QOL) Instrument on Days 1 and 29 (or the final visit). Blood samples were taken at the visits on Day 15 and Day 29 to determine concentrations in plasma of DM, DX, and Q.

[2] = Clinical Study #2: plasma pharmacokinetics of dextromethorphan, dextrorphan and quinidine, single and multiple dose; conditions: for AUC(0-t) / Cmax / Tmax: human, in vivo, mean; for AUC(0-t): AUC (0-12) (plasma); for Cmax: Cmax (plasma); for Tmax: Tmax (plasma)
Method: Descriptive statistics for each parameter, including mean, median, standard deviation, coefficient of variation, N, minimum, and maximum were calculated for all of the subjects by Day. In addition, descriptive statistics were presented by the subgroups: extensive metabolizer (EM) and poor metabolizer (PM).
The ANOVA model included the factors group (EM or PM), subject within group, day, and the interaction term day by group. The group effect was tested using the subject within group mean square, and all other main effects were tested using the residual error (error mean square). In addition, tests of the hypotheses Day 1=Day 4, Day 1=Day 8, and Day 4=Day 8 were performed.

[3] = type: in vivo
Source text: An adverse event was any unfavorable and unintended sign (including an abnormal laboratory finding, for example), symptom, or disease temporally associated with the use of a medicinal product, whether or not considered related to the medicinal product. Changes associated with normal growth and development not varying in frequency or magnitude from that ordinarily anticipated clinically are not adverse events (for example, onset of menstruation occurring at a physiologically appropriate time). Clinical adverse events were described by diagnosis and not by symptoms when possible (for example, cold or seasonal allergies, instead of “runny nose”).
The severity of adverse events was graded on a 3-point scale and reported in detail as indicated on the Case Report Form: mild—easily tolerated, causing minimal discomfort, and not interfering with normal everyday activities; moderate—sufficiently discomforting to interfere with normal everyday activities; and severe—incapacitating and/or preventing normal everyday activities.
Subjects were instructed to promptly report any adverse event. The serious adverse event was assessed for the following details: seriousness of event, start date, stop date, intensity, frequency, relationship to test drug, action taken regarding test drug, treatment required, and outcome to date. These details were recorded on the Case Report Form. Such preliminary reports were followed by detailed descriptions that included copies of hospital case reports, autopsy reports, and other documents when requested and applicable.
Blood and urine were collected at the screening visit and Day 29 for clinical chemistry, hematology, urinalysis, and pregnancy testing. In the event of an abnormal laboratory test value, the test was repeated within one week, and the subject was followed up until the value returned to the normal range and/or until an adequate explanation of the abnormality was found.
Values were obtained for systolic and diastolic blood pressure, heart rate, and respiration rate on the screening visit and all other study visits. All values outside the pre-defined ranges were flagged in the subject data listings. Electrocardiography (twelve lead) was used to obtain ventricular rate (VR), QT, Q-Tc intervals, […] (PR), and QRS duration. A blood sample (10 mL whole blood) was taken from each subject at the Screening Visit for CYP2D6 genotyping to determine which subjects were poor metabolizers of DM and which were extensive metabolizers. Blood samples were taken on Day 29 for the determination of concentrations of DM, DX, and Q in plasma. The relationship between the concentration of drug in plasma and changes in CNS-LS scores was determined, and the effect of the CYP2D6 genotype on this relationship was evaluated.

[4] = Day 1, All Subjects, 30 mg DM HBr/25 mg Q sulfate capsule every 12 hours
[5] = Day 1, EM, 30 mg DM HBr/25 mg Q sulfate capsule every 12 hours
[6] = Day 1, PM, 30 mg DM HBr/25 mg Q sulfate capsule every 12 hours
[7] = Day 4, All Subjects, 30 mg DM HBr/25 mg Q sulfate capsule every 12 hours
[8] = Day 4, EM, 30 mg DM HBr/25 mg Q sulfate capsule every 12 hours
[9] = Day 4, PM, 30 mg DM HBr/25 mg Q sulfate capsule every 12 hours
[10] = Day 8, All Subjects, 30 mg DM HBr/25 mg Q sulfate capsule every 12 hours
[11] = Day 8, EM, 30 mg DM HBr/25 mg Q sulfate capsule every 12 hours
[12] = Day 8, PM, 30 mg DM HBr/25 mg Q sulfate capsule every 12 hours

For `CN1CC[C@@]23CCCC[C@@H]2[C@@H]1Cc1ccc(O)cc13` [Dextrorphan, dextrorphan], the “Concentration in plasma, Mean” value ([1]; DM/Q MTD 30 mg) was 70.7 ng/mL, the “Concentration in plasma, Median” value ([1]; DM/Q MTD 30 mg) was 94.6 ng/mL and the “Concentration in plasma, Mean” value ([1]; DM/Q MTD 60 mg) was 65.4 ng/mL. The “Concentration in plasma, Median” value ([1]; DM/Q MTD 60 mg) was 58.2 ng/mL, the “Concentration in plasma, Mean” value ([1]; DM/Q MTD 90 mg) was 88.4 ng/mL and the “Concentration in plasma, Median” value ([1]; DM/Q MTD 90 mg) was 88.4 ng/mL. For the same compound, the “Concentration in plasma, Mean” value ([1]; DM/Q MTD 120 mg) was 146.6 ng/mL, the “Concentration in plasma, Median” value ([1]; DM/Q MTD 120 mg) was 122.6 ng/mL and the “Concentration in plasma, Mean” value ([1]; Total, all MTDs) was 123.9 ng/mL. The “Concentration in plasma, Median” value ([1]; Total, all MTDs) was 102.6 ng/mL, the Concentration in plasma ([1]; poor metabolizer (MTD of 60 mg)) was 41.0 ng/mL and the AUC(0-t) [2, 4] was 749 ng·h/mL. It also gave an AUC(0-t) [2, 5] of 934 ng·h/mL, an AUC(0-t) [2, 6] of 91 ng·h/mL and an AUC(0-t) [2, 7] of 742 ng·h/mL. For the same compound, the AUC(0-t) [2, 8] was 849 ng·h/mL, the AUC(0-t) [2, 9] was 365 ng·h/mL and the AUC(0-t) [2, 10] was 896 ng·h/mL. The AUC(0-t) [2, 11] was 1000 ng·h/mL, the AUC(0-t) [2, 12] was 530 ng·h/mL and the Cmax [2, 4] was 99.5 ng/mL. For the same compound, the Cmax [2, 5] was 125 ng/mL, the Cmax [2, 6] was 10.8 ng/mL and the Cmax [2, 7] was 69.9 ng/mL. It also gave a Cmax [2, 8] of 79.3 ng/mL, a Cmax [2, 9] of 37 ng/mL and a Cmax [2, 10] of 108 ng/mL. The Cmax [2, 11] was 124 ng/mL, the Cmax [2, 12] was 51.5 ng/mL and the Tmax [2, 4] was 3.78 h. For the same compound, the Tmax [2, 5] was 4 h, the Tmax [2, 6] was 3 h and the Tmax [2, 7] was 2.17 h. It also gave a Tmax [2, 8] of 2.21 h, a Tmax [2, 9] of 2 h and a Tmax [2, 10] of 32.7 h. The Tmax [2, 11] was 41.2 h, the Tmax [2, 12] was 2.99 h and the “Fold increase in AUC (0-12) from Day 1 to Day 8” value ([2]; poor metabolizers) was 4.8 fold.
`C=C[C@H]1C[N@@]2CC[C@H]1C[C@@H]2[C@@H](O)c1ccnc2ccc(OC)cc12` [Quinidine, quinidine] gave a Subjects with dizziness ([3]; 28 days, twice daily) of 2.7%, a Subjects with nausea ([3]; 28 days, twice daily) of 8.1% and a Subjects with somnolence ([3]; 28 days, twice daily) of 0%. For the same compound, the “Subjects who withdrew because of adverse events” value ([3]; human, in vivo, 29 days) was 8.1%, the “Subjects reporting serious adverse events” value ([3]; judged not related to the study drug) was “only other serious adverse event” and the Tmax [2] was 1.71 h.
